According to patent US6569461B1, “Dihydroxy open-acid and salts of HMG-CoA reductase inhibitors” (Merck & Co., Inc., priority 1999, dated 2003):

Legend:
[1] = Plasma total and active HMG-CoA reductase inhibitory activity (enzymatic assay) in open, randomized, four-period crossover study with or without itraconazole; conditions: human, in vivo
Description: (§1) Intraduodenal administration was accomplished via a nasoduodenal tube placed under fluoroscopic guidance by an experienced gastroenterologist just prior to dosing and removed following the 1-hr postdose measurements.
(§2) All calculations were based on designated sampling times or actual sampling times when they differed from the designated times by more than 10 minutes.

[2] = human, in vivo
Description: as §1, §2

CCC(C)(C)C(=O)O[C@H]1C[C@@H](C)C=C2C=C[C@H](C)[C@H](CC[C@@H](O)C[C@@H](O)CC(=O)O)[C@H]21 [SVA, dihydroxy open acid simvastatin]
AUC, Active Inhibitors [1]: 54.1 ± 28.5 ng eq·hr/mL | Cmax, Active Inhibitors [1]: 5.7 ± 3.0 ng eq/mL | change by itraconazole pretreatment in AUC and Cmax of HMG-CoA reductase inhibitory activity (total or active) ([1]; male): 1.3-1.5 fold | effect of itraconazole on apparent t1/2 values [2]: essentially unchanged | effect of itraconazole measured as the unchanged drug ([2]; male): 1.5 fold
